Measurements: patent EP0547705A1, “Pharmacologically active tricyclic benzotriazepine derivatives” (CONSEJO SUPERIOR DE INVESTIGACIONES CIENTIFICAS, priority 1991, dated 1993)

Legend:
[1] = Siegmund test (inhibition of pain); assay type: in vivo; conditions: 100 mg/kg p.o.
Procedure: (§1) The compounds of formula I are antidepressant, diuretic, antihypertensive, antihistamic, anticonvulsive, antipyretic, anti-inflammatory and/or analgesic agents. […] Exp. Biol. Med. 95, 729 (1957.)] In connection with its activity, this compound is very safe with a LD₅₀ of 1250 mg/kg p.o. in mice.

[2] = Acute toxicity LD50 p.o. in mice; conditions: mouse, in vivo, po, read-out: LD₅₀
Procedure: as §1

[3] = Antagonism of the effects of tetrabenazine (ptosis, akinesia, hypothermia), antidepressant activity; assay type: in vivo; conditions: for prevents ptosis: 25 mg/kg p.o., tetrabenazine-induced ptosis; for antagonism to hypothermia produced by tetrabenazine: dose not restated (25 mg/kg p.o. given for ptosis in same sentence)
Procedure: The antidepressant activity of these compounds is measured in terms of their capacity of antagonizing the effects of tetrabenazine (ptosis, akinesia and hypothermia), this action being characteristic of antidepressants such as amitriptiline or thianeptine (New Drugs: Discovery and Development. A.A. Rubin (Ed.), Marcel Dekker, Inc. New York-Basel, 203 (1978.)) For example, 2-[(5,10-dihydro-4,4-dioxo-5-methylthieno[3,4-c][2,1]benzothiazepin-10-yl)oxy]-N-methylethylamine (example 53) and 2-[(4,9-dihydro-2,9-dimethyl-10,10-dioxo-2H-pyrazolo[3,4-c][2,1]-benzothiazepin-4-yl)oxy]-1-ethylpyrrolidine (example 91) prevents ptosis at 25 mg/kg p.o., 100% and 90%, respectively, while the antagonism to hypothermia produced by tetrabenazine when administered is 85 % and 75 %, respectively.

## CN1c2ccccc2C(O)c2sccc2S1(=O)=O (stereo not drawn) [example 1, 5,10-dihydro-4,4-dioxo-10-hydroxy-5-methylthieno[3,2-c][2,1]benzothiazepine]
[1]
  inhibition of pain: 92%
[2]
  LD50: 1250 mg/kg

## CNCCOC1c2ccccc2N(C)S(=O)(=O)c2cscc21 (stereo not drawn) [example 53, 2-[(5,10-dihydro-4,4-dioxo-5-methylthieno[3,4-c][2,1]benzothiazepin-10-yl)oxy]-N-methylethylamine]
[3]
  prevents ptosis: 100%
  antagonism to hypothermia produced by tetrabenazine: 85%

## CN1c2ccccc2C(OCCN2CCCC2)c2cn(C)nc2S1(=O)=O (stereo not drawn) [example 91]
[3]
  prevents ptosis: 90%
  antagonism to hypothermia produced by tetrabenazine: 75%
